Source: US20220274947A1, “NOVEL HETEROARYL-TRIAZOLE COMPOUNDS AS PESTICIDES” (Bayer Aktiengesellschaft, priority 2019, published 2022)

Tests used:
Format in all cases: in vivo
[1] = tested on: Rhipicephalus microplus; test: Rhipicephalus (Boophilus) microplus injection test (BOOPMI Inj); conditions: 168 h, injection into adult engorged female ticks, egg deposition after 7 days, read-out: activity (efficacy: 100% means all eggs are infertile); for pest or weed control at 0.004 mg: application rate 4 μg/tick; for pest or weed control at 0.02 mg: application rate 20 μg/tick
Summary of the method: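 Five engorged adult female R. microplus ticks injected into the abdomen with 1 μL of compound diluted in DMSO, then kept in a climate chamber. Fertile egg deposition checked after 7 days; eggs without visible fertility held until hatching at about 42 days. Efficacy: 100% = all eggs infertile, 0% = all fertile.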

[2] = tested on: Rhipicephalus microplus; test: Rhipicephalus (Boophilus) microplus in-vitro contact test, larval cattle tick, strain Parkhurst (BOOPMI Cont); conditions: application rate 5 μg/cm^2 (=500 g/ha), tick larvae, after 48 hours, read-out: activity (efficacy: 100% means all larvae are dead or moribund)
Summary of the method: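 Acetone solutions dried onto glass tube walls (900 ppm giving 5 μg/cm^2); 20-50 pyrethroid-resistant Parkhurst larvae added per tube and held 48 h at 27° C., 85% relative humidity. Efficacy scored by negative geotaxis as % dead or moribund larvae.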

[3] = tested on: Ctenocephalides felis; test: Ctenocephalides felis in-vitro contact test, adult cat flea (CTECFE Cont); conditions: application rate 5 μg/cm^2 (=500 g/ha), adult cat fleas, after 48 hours, read-out: activity (efficacy: 100% means all fleas are dead or moribund)
Protocol: Ctenocephalides felis—In-Vitro Contact Tests Adult Cat Flea (CTECFE Cont)
9 mg compound is solved in 1 mL acetone and diluted with acetone to the desired concentration. 250 μL of the test solution is filled in 25 mL glass test tubes and homogeneously distributed on the inner walls by rotation and tilting on a shaking device (2 h at 30 rpm). With a compound concentration of 900 ppm, an inner surface of 44.7 cm^2 and a homogeneous distribution, a dose of 5 μg/cm^2 is achieved.
After the solvent has evaporated, each test tube is filled with 5-10 adult cat fleas (Ctenocephalides felis), closed with a perforated lid and incubated in a lying position at room temperature and relative humidity. After 48 hours efficacy is determined. The fleas are patted on the ground of the tubes and are incubated on a heating plate at 45-50° C. for at most 5 minutes. Immotile or uncoordinated moving fleas, which are not able to escape the heat by climbing upwards, are marked as dead or moribund.
An efficacy of 100% means all fleas are dead or moribund; 0% means no fleas are dead or moribund.

[4] = tested on: Ctenocephalides felis; test: Ctenocephalides felis oral test (CTECFE Oral); conditions: 48 h, read-out: activity (mortality)
Protocol: Ctenocephalides felis—Oral Test (CTECFE Oral) Solvent: dimethyl sulfoxide
To produce a suitable preparation of active compound, 10 mg of active compound are dissolved in 0.5 mL solvent, and the concentrate is diluted with cattle blood to the desired concentration.
Approximately 20 adult unfed cat fleas (Ctenocephalides felis) are placed in flea chambers. The blood chamber, sealed with parafilm on the bottom, are filled with cattle blood supplied with compound solution and placed on the gauze covered top of the flea chamber, so that the fleas are able to suck the blood. The blood chamber is heated to 37° C. whereas the flea chamber is kept at room temperature.
After 2 days mortality in % is determined. 100% means all the fleas have been killed; 0% means none of the fleas have been killed.

[5] = tested on: Rhipicephalus sanguineus; test: Rhipicephalus sanguineus in-vitro contact test, adult brown dog ticks (RHIPSA Cont); conditions: 48 h, after 48 hours, read-out: activity (efficacy: 100% means all ticks are dead or moribund); for pest or weed control at 1 µg/cm2, 100 g/ha: application rate 1 μg/cm^2 (=100 g/ha); for pest or weed control at 5 µg/cm2, 500 g/ha: application rate 5 μg/cm^2 (=500 g/ha)
Summary of the method: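 Mortality of adult R. sanguineus was judged 48 h after contact with acetone-applied residues on glass tube walls. Ticks that stayed immotile or moved without coordination when heated to 45–50 °C (max 5 min) counted as dead or moribund.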

[6] = tested on: Diabrotica balteata; test: Diabrotica balteata spray test; conditions: 168 h, wheat seeds, larvae, after 7 days, read-out: activity (efficacy: 100% means all seedlings have grown up like in the untreated, uninfected control); for pest or weed control at 32 µg/disc, 100 g/ha: application rate 100 g/ha (=32 μg/well); for pest or weed control at 160 µg/disc, 500 g/ha: application rate 500 g/ha (=160 μg/well)
Summary of the method: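 Wheat seedlings, germinated 1 day on agar, were sprayed with compound in acetone/DMF diluted in water containing emulsifier, then infested with 10-20 Diabrotica balteata larvae. After 7 days efficacy in % was scored: 100% means seedlings grew like the untreated, uninfected control; 0% means none grew.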

[7] = tested on: Spodoptera frugiperda; test: Spodoptera frugiperda spray test; conditions: in Zea mays, 168 h, read-out: activity (mortality)
Summary of the method: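 Maize leaf sections were sprayed with compound formulated in acetone/DMF and diluted in water containing 1000 ppm emulsifier. Dried leaves were infested with fall armyworm larvae, and percent mortality was scored after 7 days.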

[8] = tested on: Aedes aegypti strain MONHEIM; test: Aedes aegypti test (AEDSAE surface treatment & contact assay); conditions: exposure 30 minutes, 24 hours after contact, read-out: efficacy (mortality); for mortality at 4 mg/m2: surface concentration 4 mg/m^2, glazed tile; for mortality at 20 mg/m2: surface concentration 20 mg/m^2, glazed tile
Protocol: Aedes aegypti Test (AEDSAE Surface Treatment & Contact Assay) Solvent: Aceton+2000 ppm rapeseed oil methyl ester (RME)
(§1) In order to produce a sufficient, active ingredient containing solution it is necessary to solve the test compound in the solvent-mix (acetone at 2 mg/ml/RME 2000 ppm). This solution is pipetted onto a glazed tile and after evaporation of the acetone, adult mosquitoes of the species Aedes aegypti strain MONHEIM are placed onto the dried surface. The exposure time is 30 minutes. Mortality in percent (%) is determined 24 hours after contact of the insects to the treated surface. 100% mortality means that all tested insects are dead, whereas 0% means that no insect died.

[9] = tested on: Myzus persicae; test: Myzus persicae oral test; conditions: 120 h, read-out: activity (mortality)
Protocol: Myzus persicae—Oral Test Solvent: 100 parts by weight acetone
To produce a suitable preparation of active compound, 1 part by weight of active compound is mixed with the stated amount of solvent, and the concentrate is diluted with water to the desired concentration.
50 μL compound solution is filled in microtiter plates and 150 μL IPL41 insect medium (33%+15% sugar) is added to obtain a total volume of 200 μL per well. Afterwards the plates are sealed with parafilm through which a mixed population of the green peach aphid (Myzus persicae) can suck on the compound preparation.
After 5 days mortality in % is determined. 100% means all aphids have been killed and 0% means none of the aphids have been killed.

[10] = tested on: Musca domestica strain WHO—N; test: Musca domestica test (MUSCDO surface treatment & contact assay); conditions: exposure 30 minutes, 24 hours after contact, read-out: efficacy (mortality)
Protocol: Musca domestica Test (MUSCDO Surface Treatment & Contact Assay) Solvent: Aceton+2000 ppm rapeseed oil methyl ester (RME)
as §1, with “flies” for “mosquitoes”, “Musca domestica” for “Aedes aegypti”, “WHO—N” for “MONHEIM”

| Structure (SMILES) | pest or weed control at 0.004 mg [1] | pest or weed control at 0.02 mg [1] | pest or weed control at 5 µg/cm2 [2] | pest or weed control at 5 µg/cm2 [3] | mortality at 100 ppm [4] | pest or weed control at 1 µg/cm2, 100 g/ha [5] | pest or weed control at 5 µg/cm2, 500 g/ha [5] | pest or weed control at 32 µg/disc, 100 g/ha [6] | pest or weed control at 160 µg/disc, 500 g/ha [6] | mortality at 100 g/ha [7] | mortality at 500 g/ha [7] | mortality at 4 mg/m2 [8] | mortality at 20 mg/m2 [8] | mortality at 4 ppm [9] | mortality at 4 mg/m2 ([10]; surface concentration 4 mg/m^2, glazed tile) | mortality at 20 mg/m2 ([10]; surface concentration 20 mg/m^2, glazed tile) |
| --- | --- | --- | --- | --- | --- | --- | --- | --- | --- | --- | --- | --- | --- | --- | --- | --- |
| CC(C)N(C(=O)c1ccc(-n2ncnc2[C@H](C)NC(=O)c2cc(Cl)cc(C(F)(F)F)c2)nc1)C1CC1 [II-29] | 100% | 100% | 100% | 100% | 100% | 100% | 100% | 100% | 100% | 83% | 100% | 80 to 100% | 80 to 100% |  |  |  |
| C[C@H](NC(=O)c1cc(Cl)cc(OC(F)(F)F)c1)c1ncnn1-c1cc(C#N)ccn1 [II-33] | 100% | 100% | 100% | 90% |  | 80% | 80% | 100% | 100% | 100% | 100% | 80 to 100% | 80 to 100% | 100% | 80 to 100% | 80 to 100% |
| CCN(CC)C(=O)c1ccnc(-n2ncnc2[C@H](C)NC(=O)c2cc(C(F)(F)F)cc(C(F)(F)F)c2)c1 [II-85] |  |  | 100% | 100% |  | 100% | 100% | 100% |  | 83% |  |  |  | 100% |  |  |
| C[C@H](NC(=O)c1cc(C(F)(F)F)cc(C(F)(F)F)c1)c1ncnn1-c1cc(C(=O)N(C)CC(F)(F)F)ccn1 [II-88] |  |  | 100% | 100% |  |  |  | 100% |  | 100% |  |  |  | 100% |  |  |
| CC(C)CNC(=O)c1ccnc(-n2ncnc2[C@H](C)NC(=O)c2cc(C(F)(F)F)cc(C(F)(F)F)c2)c1 [II-90] |  |  | 100% | 80% |  |  |  |  |  | 83% |  |  |  | 100% |  |  |
| C[C@H](NC(=O)c1cc(Cl)cc(C(F)(F)F)c1)c1ncnn1-c1cc(-n2ccnc2)ccn1 [II-102] | 100% |  | 90% | 80% | 100% |  |  |  |  |  |  |  |  |  |  |  |
| C[C@H](NC(=O)c1cc(Br)cc(I)c1)c1ncnn1-c1ccc(C#N)cn1 [II-112] | 100% |  | 100% | 80% | 100% | 100% | 100% | 100% |  | 100% |  |  |  |  |  |  |
